Values quoted from earlier work, collected in US9241965B2, “Composition containing Prunus mume extract for external application to skin” (AMOREPACIFIC CORPORATION, priority 2010, dated 2016).

Target: T1, TRPV1 (Homo sapiens, UniProt Q8NER1)
T1 construct: endogenous in cells; host or cells: HaCAT cells
Settings: skin temperature about 42° C.

T1 sequence (Q8NER1 whole entry, species assumed): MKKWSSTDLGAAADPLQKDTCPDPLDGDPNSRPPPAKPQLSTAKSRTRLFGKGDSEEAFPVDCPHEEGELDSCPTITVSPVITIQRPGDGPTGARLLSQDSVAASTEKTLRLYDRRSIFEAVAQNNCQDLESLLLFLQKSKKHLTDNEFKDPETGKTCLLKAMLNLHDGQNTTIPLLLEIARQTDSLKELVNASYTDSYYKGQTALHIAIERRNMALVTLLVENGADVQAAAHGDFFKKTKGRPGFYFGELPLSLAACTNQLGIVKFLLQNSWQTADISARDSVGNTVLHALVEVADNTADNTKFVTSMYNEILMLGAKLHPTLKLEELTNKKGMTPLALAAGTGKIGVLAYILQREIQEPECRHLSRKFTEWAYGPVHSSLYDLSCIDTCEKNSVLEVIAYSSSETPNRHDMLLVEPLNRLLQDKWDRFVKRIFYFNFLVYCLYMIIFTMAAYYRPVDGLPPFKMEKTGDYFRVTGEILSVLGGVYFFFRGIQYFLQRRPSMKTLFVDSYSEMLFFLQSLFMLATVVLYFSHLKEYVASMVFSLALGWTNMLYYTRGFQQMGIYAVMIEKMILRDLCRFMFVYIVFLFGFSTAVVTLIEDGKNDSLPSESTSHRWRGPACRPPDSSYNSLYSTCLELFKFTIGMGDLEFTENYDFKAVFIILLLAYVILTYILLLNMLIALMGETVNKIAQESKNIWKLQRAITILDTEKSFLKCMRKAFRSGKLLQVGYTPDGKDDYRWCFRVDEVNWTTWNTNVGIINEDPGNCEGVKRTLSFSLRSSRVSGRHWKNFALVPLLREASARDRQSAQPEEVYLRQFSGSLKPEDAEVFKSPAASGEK

SMILES: Oc1cc2c(cc1O)CN(C(=S)NCCc1ccc(Cl)cc1)CCC2 [capsazepine]
- rate of skin barrier recovery: restores the rate of skin barrier recovery to normal level
